Where “and” joins values, the source holds several entries; their conditions need not be identical. Equal values may be shown once.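 Cells were grown in 96-well plates and exposed to each compound for 48 hours at five concentrations; endpoints were interpolated linearly between bracketing concentrations, or set to the highest concentration if not reached. GI50 is the concentration that inhibits growth by half. TGI is the concentration that stops growth completely.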
How the values were obtained:
Test in all cases: DTP human tumour cell line panel, 48 h
NCI-H460 lung = system: NCI-H460 lung
SK-OV-3 ovarian = system: SK-OV-3 ovarian
TK-10 renal = system: TK-10 renal
SF-539 CNS = system: SF-539 CNS
SNB-19 CNS = system: SNB-19 CNS
OVCAR-3 ovarian = system: OVCAR-3 ovarian
HT29 colon = system: HT29 colon
NCI-H226 lung = system: NCI-H226 lung
MDA-MB-435 = system: MDA-MB-435
HL-60(TB) leukemia = system: HL-60(TB) leukemia

O=[N+]([O-])C(=C(Nc1cccc2cccnc12)Nc1cccc2cccnc12)C(Cl)=C(Cl)Cl
TGI (NCI-H460 lung): > 100 µM
TGI (SK-OV-3 ovarian): > 100 µM
TGI (TK-10 renal): > 100 µM
TGI (SF-539 CNS): > 100 µM
TGI (SNB-19 CNS): > 100 µM
TGI (OVCAR-3 ovarian): > 100 µM
TGI (HT29 colon): > 100 µM
TGI (NCI-H226 lung): > 100 µM
TGI (MDA-MB-435): > 100 µM

C=C(C(=O)OCC)C(=O)OCC
TGI (NCI-H460 lung): > 100 µM
TGI (SK-OV-3 ovarian): > 100 µM
TGI (TK-10 renal): > 100 µM
TGI (SF-539 CNS): > 100 µM
TGI (SNB-19 CNS): > 100 µM
TGI (OVCAR-3 ovarian): > 100 µM
TGI (HT29 colon): > 100 µM
TGI (NCI-H226 lung): > 100 µM
TGI (MDA-MB-435): > 100 µM

N#CNC(=NCc1ccccc1)N(Cc1ccccc1)Cc1ccccc1
TGI (NCI-H460 lung): > 31.6 µM
TGI (TK-10 renal): > 31.6 µM
TGI (SF-539 CNS): > 31.6 µM
TGI (SNB-19 CNS): > 100 µM
TGI (OVCAR-3 ovarian): > 31.6 µM
TGI (HL-60(TB) leukemia): > 31.6 µM
TGI (NCI-H226 lung): > 31.6 µM
TGI (MDA-MB-435): > 100 µM

CCOc1cc(/C=C2/C(C)=NN(c3cccc(Cl)c3)/C2=N/c2nc3ccccc3s2)ccc1O
TGI (NCI-H460 lung): 64 µM
TGI (SK-OV-3 ovarian): 70.5 µM
TGI (TK-10 renal): > 100 µM
TGI (SF-539 CNS): 57 µM
TGI (OVCAR-3 ovarian): 50.8 µM
TGI (HL-60(TB) leukemia): 12.4 µM
TGI (HT29 colon): > 100 µM
TGI (NCI-H226 lung): 68 µM

C/C(C[n+]1ccccc1)=N\N=C(N)N
TGI (NCI-H460 lung): > 100 µM
TGI (SK-OV-3 ovarian): > 100 µM
TGI (TK-10 renal): > 100 µM
TGI (SNB-19 CNS): > 100 µM
TGI (OVCAR-3 ovarian): > 100 µM
TGI (HL-60(TB) leukemia): > 100 µM
TGI (HT29 colon): > 100 µM
TGI (NCI-H226 lung): > 100 µM
TGI (MDA-MB-435): > 100 µM

CCOC(=O)C1S/C(=N\C(=N)N[N+](=O)[O-])N=C1C (centres undefined)
TGI (NCI-H460 lung): > 100 µM
TGI (TK-10 renal): > 100 µM
TGI (SF-539 CNS): > 100 µM
TGI (SNB-19 CNS): > 100 µM
TGI (OVCAR-3 ovarian): > 100 µM
TGI (HL-60(TB) leukemia): > 100 µM
TGI (HT29 colon): > 100 µM
TGI (NCI-H226 lung): > 100 µM

COC(C)(C)C1(O)CC[C@@H](C)CC1=O (some centres undefined)
TGI (NCI-H460 lung): > 100 µM
TGI (SK-OV-3 ovarian): > 100 µM
TGI (TK-10 renal): > 100 µM
TGI (SF-539 CNS): > 100 µM
TGI (SNB-19 CNS): > 100 µM
TGI (OVCAR-3 ovarian): > 100 µM
TGI (HL-60(TB) leukemia): > 100 µM
TGI (HT29 colon): > 100 µM
TGI (MDA-MB-435): > 100 µM

CC(c1ccccc1)N1CCN(C(C)c2ccccc2)CC1 (centres undefined)
TGI (NCI-H460 lung): > 100 µM
TGI (TK-10 renal): > 100 µM
TGI (SNB-19 CNS): > 100 µM
TGI (OVCAR-3 ovarian): > 100 µM
TGI (HL-60(TB) leukemia): > 100 µM
TGI (HT29 colon): > 100 µM
TGI (NCI-H226 lung): > 100 µM
TGI (MDA-MB-435): > 100 µM

COc1ccc(C(=O)/C=C/c2ccc(OCCCOc3ccc(/C=C/C(=O)c4ccc(OC)cc4)cc3)cc2)cc1
TGI (NCI-H460 lung): > 100 µM
TGI (SK-OV-3 ovarian): > 100 µM
TGI (TK-10 renal): > 100 µM
TGI (SF-539 CNS): 72.6 µM
TGI (SNB-19 CNS): > 100 µM
TGI (HL-60(TB) leukemia): > 100 µM
TGI (HT29 colon): > 100 µM
TGI (NCI-H226 lung): > 100 µM
TGI (MDA-MB-435): > 100 µM

Cc1c(/C=N\NC(=S)NCCNC(=S)N/N=C\c2c(C)n(C)n(-c3ccccc3)c2=O)c(=O)n(-c2ccccc2)n1C
TGI (NCI-H460 lung): > 100 µM
TGI (SK-OV-3 ovarian): > 100 µM
TGI (TK-10 renal): > 100 µM
TGI (SF-539 CNS): > 100 µM
TGI (SNB-19 CNS): > 100 µM
TGI (OVCAR-3 ovarian): > 100 µM
TGI (HT29 colon): > 100 µM
TGI (NCI-H226 lung): > 100 µM
TGI (MDA-MB-435): > 100 µM

C=C1CC(C#N)(C#N)[C@H]2C3CCCC3C[C@@H]12 (some centres undefined) (tested in a mixture with another compound)
TGI (SK-OV-3 ovarian): > 100 µM
TGI (TK-10 renal): > 100 µM
TGI (SF-539 CNS): 50.2 µM
TGI (SNB-19 CNS): 67.4 µM
TGI (OVCAR-3 ovarian): 38.9 µM
TGI (HL-60(TB) leukemia): 54.2 µM
TGI (HT29 colon): 28.1 µM
TGI (NCI-H226 lung): 61.9 µM
TGI (MDA-MB-435): 44.5 µM

CNc1cc2c(c3ccccc13)C(CCl)CN2C(=O)c1cc2cc(OC)c(OC)c(OC)c2[nH]1 (centres undefined)
TGI (NCI-H460 lung): 0.00226 µM
TGI (SK-OV-3 ovarian): 0.894 µM and 0.982 µM
TGI (SNB-19 CNS): 0.107 µM
TGI (OVCAR-3 ovarian): 1.32 µM
TGI (HL-60(TB) leukemia): 0.000667 µM
TGI (HT29 colon): 0.168 µM
TGI (NCI-H226 lung): 0.067 µM
TGI (MDA-MB-435): 0.0131 µM

C[C@H](CCC(=O)O)[C@H]1CC[C@H]2[C@@H]3C(=O)C[C@@H]4C[C@H](O)CC[C@]4(C)[C@H]3C[C@H](O)[C@]12C
TGI (NCI-H460 lung): > 100 µM
TGI (TK-10 renal): > 100 µM
TGI (SF-539 CNS): > 100 µM
TGI (SNB-19 CNS): > 100 µM
TGI (HL-60(TB) leukemia): > 100 µM
TGI (HT29 colon): > 100 µM
TGI (NCI-H226 lung): > 100 µM
TGI (MDA-MB-435): > 100 µM

O=C(O)CCNc1ncnc2nc[nH]c12
TGI (NCI-H460 lung): > 100 µM
TGI (SK-OV-3 ovarian): > 100 µM
TGI (TK-10 renal): > 100 µM
TGI (SNB-19 CNS): > 100 µM
TGI (OVCAR-3 ovarian): > 100 µM
TGI (HL-60(TB) leukemia): > 100 µM
TGI (HT29 colon): > 100 µM
TGI (NCI-H226 lung): > 100 µM
TGI (MDA-MB-435): > 100 µM

CC1(C)[C@@H]2CC[C@@]1(C)CN(CCC[N+](C)(C)C)C2
TGI (NCI-H460 lung): > 100 µM
TGI (SK-OV-3 ovarian): > 100 µM
TGI (TK-10 renal): > 100 µM
TGI (SF-539 CNS): > 100 µM
TGI (SNB-19 CNS): > 100 µM
TGI (OVCAR-3 ovarian): > 100 µM
TGI (HT29 colon): > 100 µM
TGI (NCI-H226 lung): > 100 µM
TGI (MDA-MB-435): > 100 µM

O=C(NCP(=O)(Oc1ccccc1)Oc1ccccc1)OCc1ccccc1
TGI (NCI-H460 lung): > 100 µM
TGI (SK-OV-3 ovarian): > 100 µM
TGI (TK-10 renal): > 100 µM
TGI (SNB-19 CNS): > 100 µM
TGI (OVCAR-3 ovarian): > 100 µM
TGI (HL-60(TB) leukemia): > 100 µM
TGI (HT29 colon): > 100 µM
TGI (NCI-H226 lung): > 100 µM
TGI (MDA-MB-435): > 100 µM

O=C1NC(N2CCOCC2)=N/C1=C\c1ccco1
TGI (SK-OV-3 ovarian): > 100 µM
TGI (TK-10 renal): > 100 µM
TGI (SF-539 CNS): > 100 µM
TGI (SNB-19 CNS): > 100 µM
TGI (OVCAR-3 ovarian): > 100 µM
TGI (HL-60(TB) leukemia): > 100 µM
TGI (HT29 colon): > 100 µM
TGI (NCI-H226 lung): > 100 µM
TGI (MDA-MB-435): > 100 µM

O=C(O)COc1ccccc1C(=O)Nc1ccccc1
TGI (NCI-H460 lung): > 100 µM
TGI (SK-OV-3 ovarian): > 100 µM
TGI (TK-10 renal): > 100 µM
TGI (SF-539 CNS): > 100 µM
TGI (SNB-19 CNS): > 100 µM
TGI (OVCAR-3 ovarian): > 100 µM
TGI (HL-60(TB) leukemia): > 100 µM
TGI (HT29 colon): > 100 µM
TGI (NCI-H226 lung): > 100 µM

C=CCn1c(=O)c(C(=O)Nc2nc(C34CC5CC(CC(C5)C3)C4)cs2)c(O)c2ccccc21
TGI (NCI-H460 lung): > 100 µM
TGI (TK-10 renal): > 100 µM
TGI (SF-539 CNS): > 100 µM
TGI (SNB-19 CNS): > 100 µM
TGI (OVCAR-3 ovarian): > 100 µM
TGI (HL-60(TB) leukemia): 65.6 µM
TGI (HT29 colon): > 100 µM
TGI (NCI-H226 lung): > 100 µM
TGI (MDA-MB-435): > 100 µM

O=C1OCC/C1=N/O
TGI (NCI-H460 lung): > 100 µM
TGI (SK-OV-3 ovarian): > 100 µM
TGI (TK-10 renal): > 100 µM
TGI (SF-539 CNS): > 100 µM
TGI (OVCAR-3 ovarian): > 100 µM
TGI (HL-60(TB) leukemia): > 100 µM
TGI (HT29 colon): > 100 µM
TGI (NCI-H226 lung): > 100 µM

CCOC(=O)N1CCC(N[C@@H]2c3cc4c(cc3C(c3cc(OC)c(O)c(OC)c3)C3C(=O)OC[C@@H]32)OCO4)CC1 (some centres undefined)
TGI (NCI-H460 lung): 0.887 µM and 2.88 µM
TGI (SK-OV-3 ovarian): 4.6 µM and 4.45 µM
GI50 (TK-10 renal): 2.09 µM and 4.27 µM
TGI (TK-10 renal): 11.9 µM and 9.5 µM
TGI (SF-539 CNS): 5.78 µM and 4.71 µM
TGI (SNB-19 CNS): 7.1 µM and 6.95 µM
TGI (OVCAR-3 ovarian): 17.5 µM and 11.6 µM
GI50 (HL-60(TB) leukemia): 0.221 µM and 0.468 µM
TGI (HL-60(TB) leukemia): 2 µM and 5.46 µM
TGI (HT29 colon): 15.5 µM and 10.7 µM

CCCCCCCCCCCC[S+](C)C
TGI (NCI-H460 lung): 33.2 µM
TGI (SK-OV-3 ovarian): 21.7 µM
TGI (TK-10 renal): 18.3 µM
TGI (SF-539 CNS): 19.4 µM
TGI (SNB-19 CNS): 20.5 µM
TGI (OVCAR-3 ovarian): 18.6 µM
TGI (HL-60(TB) leukemia): 14.1 µM
TGI (HT29 colon): 18.3 µM
TGI (NCI-H226 lung): 15.4 µM

O=C(O)C(Cl)(Cl)Cl
TGI (NCI-H460 lung): > 100 µM
TGI (SK-OV-3 ovarian): > 100 µM
TGI (TK-10 renal): > 100 µM
TGI (SF-539 CNS): > 100 µM
TGI (SNB-19 CNS): > 100 µM
TGI (HL-60(TB) leukemia): > 100 µM
TGI (NCI-H226 lung): > 100 µM
